The results in this text go back to patent US20040228831A1, “Polymeric conjugates for tissue activated drug delivery” (priority 2003, published 2004).

One data set relates to murine melanoma B16-F10. The experiment in a line: Anti-tumor efficacy in mice bearing s.c. murine melanoma B16-F10, daily i.v. x5. It is filed as in vivo. Particulars: 2 mg/kg (free drug's MTD), daily i.v. for 5 days. The method, then:
(§1) Polymeric prodrug conjugate, conjugate, 6, a doxorubicin (Dox)-containing construct in which the drug moiety is attached to the PEG backbone via a cathepsin B-cleavable linker peptide was tested in mice bearing murine melanoma B16-F10 implanted s.c. Mice were treated by daily i.v. (tail vein) injection for 5 consecutive days, beginning on the day when tumors became palpable. The conjugate was studied at the maximum tolerated dose (MTD) of the free drug, 2 mg Dox/kg (equimolar comparison), and at the conjugate's MTD, 6 mg Dox/kg (equitoxic comparison). The conjugate, 6, or Dox administered at the free drug's MTD (2 mg/kg) had minimal anti-tumor effect (30% tumor reduction, 3.4 days delay in reaching 500 mg). But at the conjugate's MTD of 6 mg Dox/kg there was substantial activity (FIG. 1A). The conjugate reduced tumor by 81% and extended the time to reach 500 mg to 6.5 days. Therefore as a polymeric prodrug conjugate it was possible to increase the tolerated drug dose by a factor of 3, and this increase permitted the achievement of substantially greater anti-tumor efficacy.

The nature of data set [1]: Maximum tolerated dose of Dox and conjugate in mice, daily i.v. x5. It is filed as in vivo. The conditions noted are these: daily i.v. injection for 5 consecutive days. The method, then:
as §1

The nature of data set [2]: Maximum tolerated dose of Pt construct and oxaliplatin. Particulars: mice. It is filed as in vivo, C57B1/6 mice. The source says: Plasmin labile construct, 26, bearing an aspartic acid-platinum-diamino-cyclohexane (DACH) chelate was studied using C57B1/6 mice bearing s.c. B16-F10 murine melanoma (FIG. 1C). […] Thus, a substantially larger dose of Pt was safely delivered by the polymeric prodrug construct.

Molecules are shown by their SMILES.

For `COc1cccc2c1C(=O)c1c(O)c3c(c(O)c1C2=O)C[C@@](O)(C(=O)CO)C[C@@H]3O[C@H]1C[C@H](N)[C@H](O)[C@H](C)O1` [Dox, doxorubicin], in the data set on murine melanoma B16-F10, the “delay in reaching 500 mg” value was 3.4 days and the tumor reduction was 30%. In addition, the “maximum tolerated dose (MTD)” value in data set [1] is 2 mg Dox/kg.
For `O=C1[O][Pt]2([NH][C@@H]3CCCC[C@H]3[NH]2)[O]C1=O` [oxaliplatin], the “maximum tolerated dose (MTD)” value in data set [2] was determined as 10 mg Pt/kg.
